Assay results published in patent US20150362481A1, “METHOD FOR THE IDENTIFICATION OF BITTER TASTING COMPOUNDS AND BITTER TASTE MODULATING COMPOUNDS” (Universitat Wien, priority 2013, published 2015).
“And” between values parts separate entries of the source, which are not always exact repeats. Identical values can stand only once.

What was measured:
[1] = system: sensorically-trained expert panel; assay: Sensoric assessment: bitter-reduction of a bitter tasting solution; assay type: in vivo, human; parameters: key to Bitterness Bitter compound + Test substance: 1 = not bitter, 10 = extremely bitter; conditions: for Bitterness Bitter compound + Test substance: scale 1 to 10; for Bitterness Bitter compound alone: scale 1 [not bitter] to 10 [extremely bitter]
Procedure: For categorization of the bitter impression, a scale from 1 [not bitter] to 10 [extremely bitter] was used. For calculation of the percent reduction of bitter taste, the mean values of the rating of the expert panel for the solution of the bitter substance alone and the solution of the bitter substance in combination with the tested potential masking substance were compared. Significances were calculated using a paired, two sided student t-test and indicated by the p-values in Table 4.

[2] = system: HGT-1 cells; assay: Reduction of bitter substance induced proton secretion in HGT-1 cells by bitter-masking compounds; assay type: cell-based, human; conditions: 10 min
Procedure: (§1) The human gastric tumor cell line HGT-1 was used for all cell culture experiments. This cell line has been obtained from Dr. C. Laboisse (Laboratory of Pathological Anatomy, Nantes, France). The cells were cultured under standard conditions at 37° C., 95% humidity, and 5% CO2 in DMEM with 4 g/L glucose, 10% fetal bovine serum, 2% L-glutamine, and 1% penicillin/streptomycin. For the reverse transcription and the intracellular proton concentration assay, the cells were harvested using trypsin/EDTA. Cell viability has been determined using trypan blue staining for which the cells were seeded in a defined cell number in 35 mm dishes respectively in black 96-well plates. […] In a 96-well plate, a total of 100,000 HGT-1 cells were spread and allowed to settle for 24 h at 37° C., 95% humidity, and 5% CO2. Cells were washed once with KRHB and incubated with the fluorescence dye SNARF-1-AM at a concentration of 3 μM for 30 min. […] As positive control, the cells were treated with 1 mM histamine. Fluorescence was analyzed at an excitation of 488 nm and emission wavelengths were recorded at 580 nm and 640 nm on an Infinite 200 Pro plate reader. The ratio of the fluorescence intensities from those two emission wavelengths allows an accurate determination of pH when plotted on a calibration curve. […] The potassium buffer calibration solutions for the intracellular pH measurement consisted of 20 mM NaCl, 110 mM KCl, 1 mM CaCl2, 1 mM MgSO4, 18 mM D-glucose, and 20 mM HEPES. The pH calibration was fit to a linear regression curve. Intracellular proton concentration was calculated from the pH. The reduced amount of protons in the cell was calculated by log 2 transformation of the ratio between treated and untreated cells (control). The presented data is given as percent variation in comparison to untreated cells.

[3] = system: HGT-1 cells; assay: Proton secretion in HGT-1 cells after stimulation with bitter substances (intracellular pH, SNARF-1-AM); assay type: cell-based, human; conditions: 10 min stimulation, vs untreated cells
Procedure: as §1, with “of 100 000” for “of 100,000”, “with Krebs-Ringer-HEPES buffer (KRHB),” for “with KRHB”, “488 nm, whereas” for “488 nm and”, “linear regression.” for “linear regression curve.”, “cells. […] Statistic: one-way Anova with post-hoc Test after Dunn's. Significant differences (p<0.05) are indicated by letters. […] Statistic: one-way Anova with post-hoc Test after Dunn's. Significant differences (p<0.05) are indicated by letters.” for “cells.”

[4] = system: TAS2R10 "knockdown" HGT-1 cells; assay: Effect of caffeine on proton secretion in TAS2R10 siRNA knockdown HGT-1 cells; assay type: cell-based, human; conditions: 3 mM, 10 min
Procedure: The HiPerFect transfection reagent (Qiagen) was used to transfect small interfering RNA (siRNA), targeting specifically human TAS2R10 (5′-[…]-3′; Sigma-Aldrich) into HGT-1 cells for the specific reduction of TAS2R10 expression. Cells were grown to 50% confluence in serum containing DMEM-media and incubation for 48 h was started by addition of serum-free media containing siRNA targeted against TAS2R10 (final siRNA concentration 1 nM) and HiPerFect transfection reagent (1 μL/6 pmol siRNA). Unrelated non-silencing siRNA (Qiagen) was used as negative control and siRNA targeted against Mn/Hs_MAPK1 which is known to efficiently knocks down human MAPK1 (Qiagen) was used as positive control. A mock transfection, in which only the HiPerFect transfection reagent was tested, was also carried out to exclude the effects of the transfection reagent itself. The knockdown efficiency was controlled by measuring mRNA expression of TAS2R10 using RT-qPCR as explained in example 1.
Statistics: two-way ANOVA with Student-Newman-Keuls post-hoc test, data shown as mean±SEM, n=3, tr=6.

[5] = caffeine 500 ppm + test compound 25 ppm
[6] = theobromine 300 ppm + test compound 25 ppm
[7] = 0.3 mM theobromine + 0.03 mM test compound
[8] = 0.3 mM theobromine + 0.3 mM test compound
[9] = 3 mM caffeine + 0.03 mM test compound
[10] = 3 mM caffeine + 0.3 mM test compound
[11] = caffeine 500 ppm + test compound 100 ppm
[12] = theobromine 300 ppm + test compound 100 ppm

Structure (SMILES): COc1cc(C[C@H]2CO[C@H](c3ccc(O)c(OC)c3)[C@H]2CO)ccc1O [Lariciresinol, lariciresinol]
- % Reduction of the Bitter impression [1, 5]: 38.6%
- Bitterness Bitter compound + Test substance [1, 5]: 2.9 ± 1.41
- % Reduction of the Bitter impression [1, 6]: 10.7%
- Bitterness Bitter compound + Test substance [1, 6]: 3.7 ± 2.24
- Percent increase in proton secretion T/C [%] [2, 7]: 31.73%
- Percent increase in proton secretion T/C [%] [2, 8]: 17.55%
- Percent increase in proton secretion T/C [%] [2, 9]: 46.40%
- Percent increase in proton secretion T/C [%] [2, 10]: 21.57%

Structure (SMILES): NCCc1c[nH]cn1 [Histamine, histamine]
- Proton secretion T/C [%] ([3]; 1 mM): 36.66% and 45.70%

Structure (SMILES): O=C1C[C@@H](c2ccc(O)c(O)c2)Oc2cc(O)cc(O)c21 [Eriodictyol, eriodictyol]
- % Reduction of the Bitter impression [1, 11]: 47%
- Bitterness Bitter compound + Test substance [1, 11]: 3.5 ± 0.7
- % Reduction of the Bitter impression [1, 12]: 36%
- Bitterness Bitter compound + Test substance [1, 12]: 2.4 ± 1.2
- Percent increase in proton secretion T/C [%] [2, 7]: 23.95%
- Percent increase in proton secretion T/C [%] [2, 8]: −42.86%
- Percent increase in proton secretion T/C [%] [2, 9]: 29.69%
- Percent increase in proton secretion T/C [%] [2, 10]: −33.96%

Structure (SMILES): COc1cc([C@@H]2CC(=O)c3c(O)cc(O)cc3O2)ccc1O [Homoeriodictyol, homoeriodictyol]
- % Reduction of the Bitter impression [1, 11]: 28%
- Bitterness Bitter compound + Test substance [1, 11]: 4.5 ± 1.4
- % Reduction of the Bitter impression [1, 12]: 12.5%
- Bitterness Bitter compound + Test substance [1, 12]: 3.7 ± 1.3
- Percent increase in proton secretion T/C [%] ([2]; 0.3 mM theobromine + 0.003 mM test compound): 21.56%
- Percent increase in proton secretion T/C [%] [2, 7]: 13.79%
- Percent increase in proton secretion T/C [%] [2, 8]: −16.92%
- Percent increase in proton secretion T/C [%] [2, 9]: 37.99%
- Percent increase in proton secretion T/C [%] [2, 10]: 20.18%

Structure (SMILES): Cn1cnc2c1c(=O)[nH]c(=O)n2C [Theobromine, theobromine]
- Bitterness Bitter compound alone ([1]; 300 ppm): 3.8 ± 1.8 and 4.5 ± 2.01 and 4.2 ± 1.65 and 4.3 ± 1.8
- Proton secretion T/C [%] ([3]; 0.03 μM): 3.71%
- Proton secretion T/C [%] ([3]; 0.3 μM): 17.71%
- Proton secretion T/C [%] ([3]; 3 μM): 43.16%
- Proton secretion T/C [%] ([3]; 30 μM): 44.88%
- Proton secretion T/C [%] ([3]; 300 μM): 57.2%

Structure (SMILES): COc1cc(C[C@H]2COC(=O)[C@@H]2Cc2ccc(O)c(OC)c2)ccc1O [Matairesinol, matairesinol]
- % Reduction of the Bitter impression [1, 5]: 35.5%
- Bitterness Bitter compound + Test substance [1, 5]: 2.7 ± 1.77
- % Reduction of the Bitter impression [1, 6]: 24.7%
- Bitterness Bitter compound + Test substance [1, 6]: 3.4 ± 1.49
- Percent increase in proton secretion T/C [%] [2, 7]: 23.41%
- Percent increase in proton secretion T/C [%] [2, 8]: −18.25%
- Percent increase in proton secretion T/C [%] [2, 9]: 14.39%
- Percent increase in proton secretion T/C [%] [2, 10]: −20.43%

Structure (SMILES): Cn1c(=O)c2c(ncn2C)n(C)c1=O [Caffeine, caffeine]
- Bitterness Bitter compound alone ([1]; 500 ppm): 6.7 ± 1.1 and 4.1 ± 0.9 and 6.3 ± 1.4
- Percent effect on proton secretion T/C [%] ([4]; mock transfected cells): 52.80%
- Percent effect on proton secretion T/C [%] ([4]; not transfected cells): 48.80%
- Percent effect on proton secretion T/C [%] ([4]; siRNA TAS2R10 knockdown cells): 28.58%
- Percent increase in proton secretion T/C [%] ([2]; 3 mM caffeine alone): 54.79% and 54.05% and 38.75% and 52.41%
- Proton secretion T/C [%] ([3]; 0.3 μM): 25.49%
- Proton secretion T/C [%] ([3]; 3 μM): 14.74%
- Proton secretion T/C [%] ([3]; 30 μM): 23.43%
- Proton secretion T/C [%] ([3]; 300 μM): 17.07%
- Proton secretion T/C [%] ([3]; 3000 μM): 40.97%
